How the values were obtained:
[1] = system: G361 (malignant melanoma); test: In vitro cytotoxicity, Calcein AM assay, G-361; assay type: cell-based; conditions: Homo sapiens, 72 h, 3-day Calcein-AM assay
Description: (§1) Because toxic compounds adversely affect cell metabolic processes, many standard cytotoxicity assays are based on measuring the rate of metabolism of various artificial substrates. The resulting product is then quantified, for example, by spectrometry. Assays can be easily modified for use in 96-well plates, A microtiter assay based on the quantification of Calcein AM metabolism was used to evaluate the cytotoxicity of cytokinins, for example meta-topolin, ortho-topolin, kinetin, BAP or its mesylate salts, but also a number of other cytokinin mesylate derivatives according to the invention. The test is widely used in drug screening programs and in chemosensitivity testing. In living cells, Calcein AM is enzymatically hydrolyzed and the accumulation of the resulting calcein is manifested by green fluorescence. The following cell lines—RPMI 8226 (multiple myeloma), CEM (T-lymphoblastic leukemia), K562 (chronic myeloid leukemia), HL-60 (promyelocytic, leukemia), MCF-7 (breast adenocarcinoma), HeLa (cervical cancer), G361 (malignant melanoma), HOS (human osteosarcoma) and BJ (human foreskin fibroblasts)—were obtained from the American Type Culture Collection (Manassas, VA, USA). These cells were maintained in standard DMEM or RPMI medium (Sigma, MO, USA) supplemented with heat-inactivated fetal bovine serum (10%) with 2 mM L-glutamine and penicillin-streptomycin (1%) under standard cell culture conditions (37° C., 5% CO2 in a humid environment) and subcultured two or three times a week using a standard trypsinization procedure. Approximately 10,000 cells in 80 μl of medium were seeded in a 96-well microtiter plate. After 12 hours of incubation, the compounds to be tested were added in 20 μl aliquots. Control cultures were treated with DMSO alone. […] Serial, 3-fold dilutions (six in total, peak concentrations in 166 μM incubations) of each compound were tested. After 72 hours of incubation, Calcein AM solution (Molecular Probes) was added to a final concentration of 1 μg/ml and the cells were incubated for another hour. Free calcein fluorescence was then quantified using a Fluoroscan Ascent fluorometer (Microsystems), and the percentage of surviving cells in each well was calculated by dividing the OD obtained from each cell by the exposed cells by the mean OD obtained from control wells×100%, Finally, IC50 values (concentration causing a 50% decrease in cellular esterase activity) were calculated for each compound generated from dose-response curves (Krys̆tof et al., 2005, Bioorg. Med. Chem. Lett. 12, 3283-3286). The IC50 values reported here are averages obtained from at least three independent experiments, where the individual replication values fell within 20% of the average. Growth inhibition was calculated using the following equation: IC50=(mean FDwell exposed to drug−mean FDblank)/(mean FDcontrol well−mean FDblank)×100%.
(§2) Cytoxicity of compounds was tested on panel of cell lines of different histogenetic and species origin.

[2] = system: MCF-7 (breast adenocarcinoma); test: In vitro cytotoxicity, Calcein AM assay, MCF7; assay type: cell-based; conditions: Homo sapiens, MCF7, 72 h, 3-day Calcein-AM assay
Description: (§3) Because toxic compounds adversely affect cell metabolic processes, many standard cytotoxicity assays are based on measuring the rate of metabolism of various artificial substrates. The resulting product is then quantified, for example, by spectrometry. Assays can be easily modified for use in 96-well plates, A microtiter assay based on the quantification of Calcein AM metabolism was used to evaluate the cytotoxicity of cytokinins, for example meta-topolin, ortho-topolin, kinetin, BAP or its mesylate salts, but also a number of other cytokinin mesylate derivatives according to the invention. The test is widely used in drug screening programs and in chemosensitivity testing. In living cells, Calcein AM is enzymatically hydrolyzed and the accumulation of the resulting calcein is manifested by green fluorescence. […] These cells were maintained in standard DMEM or RPMI medium (Sigma, MO, USA) supplemented with heat-inactivated fetal bovine serum (10%) with 2 mM L-glutamine and penicillin-streptomycin (1%) under standard cell culture conditions (37° C., 5% CO2 in a humid environment) and subcultured two or three times a week using a standard trypsinization procedure. Approximately 10,000 cells in 80 μl of medium were seeded in a 96-well microtiter plate. After 12 hours of incubation, the compounds to be tested were added in 20 μl aliquots. Control cultures were treated with DMSO alone. […] After 72 hours of incubation, Calcein AM solution (Molecular Probes) was added to a final concentration of 1 μg/ml and the cells were incubated for another hour.
as §2

[3] = system: CEM (T-lymphoblastic leukemia); test: In vitro cytotoxicity, Calcein AM assay, CEM; assay type: cell-based; conditions: 72 h, 3-day Calcein-AM assay
Description: as §3, §2

[4] = system: HL-60 (promyelocytic, leukemia); test: In vitro cytotoxicity, Calcein AM assay, HL60; assay type: cell-based; conditions: Homo sapiens, HL-60, 72 h, 3-day Calcein-AM assay
Description: as §3, §2

HOS (human osteosarcoma) = test: In vitro cytotoxicity, Calcein AM assay, HOS; assay type: cell-based; conditions: Homo sapiens, 72 h, 3-day Calcein-AM assay
Description: as §3, §2

[5] = system: K562 (chronic myeloid leukemia); test: In vitro cytotoxicity, Calcein AM assay, K-562; assay type: cell-based; conditions: Homo sapiens, K562, 72 h, 3-day Calcein-AM assay
Description: as §3, §2

NIH-3T3 = test: In vitro cytotoxicity, Calcein AM assay, NIH-3T3; assay type: cell-based; conditions: Mus musculus, NIH3T3, 72 h, 3-day Calcein-AM assay
Description: as §1, with “Growth inhibition was calculated using the following equation: IC50=(mean FDwell exposed to drug−mean FDblank)/(mean FDcontrol well−mean FDblank)×100%.” left out

[6] = system: cytokinin-dependent tobacco callus; test: Tobacco callus biotest (stimulation of plant cell division); assay type: cell-based, Nicotiana tabacum L. cv. Wisconsin 38; conditions: callus growth at concentration with highest activity; 10^−5 M BAP = 100%
Protocol: Stimulation effect of the cytokinin mesylates was tested in tobacco callus biotest using cytokinin dependent tobacco callus. Cytokinin-dependent tobacco callus Nicotiana tabacum L. cv. […] Subcultivation was carried out every three weeks. Fourteen days before the bioassay, the callus tissue was transferred to the media without BAP. Biological activity was determined from the increase in fresh callus weight after four weeks of cultivation. Five replicates were prepared for each cytokinin concentration and the entire test was repeated twice. […] Relative activity of the compound at this concentration was calculated (Tab. 15). The activity obtained for 10^−5 M 6-benzylaminopurine (BAP) was postulated as 100%. The cytokinin bases to be tested were dissolved in dimethylsulfoxide (DMSO) and the solution brought up to 10^−3 M with distilled water. The mesylate salts were dissolved directly in distilled water.

## Fc1ccc(CNc2ncnc3nc[nH]c23)cc1 [4FBAP, 6-(4-fluorobenzylamino)purine]
[1]
  IC50: > 167 µM
[2]
  IC50: > 167 µM
[3]
  IC50: 66.4 µM
[4]
  IC50: 59.2 µM
HOS (human osteosarcoma)
  IC50: > 167 µM
[5]
  IC50: > 167 µM

## Clc1ccccc1CNc1ncnc2nc[nH]c12 [2ClBAP, 6-(2-chlorobenzylamino)purine]
[1]
  IC50: 56.6 µM
[2]
  IC50: 164 µM
[3]
  IC50: 58.4 µM
NIH-3T3
  IC50: > 167 µM
[6]
  activity (%) [10^−5 mol · l^−1 BAP = 100%]: 93%
[4]
  IC50: 110 µM
HOS (human osteosarcoma)
  IC50: 84.9 µM
[5]
  IC50: 101 µM

## Fc1ccccc1CNc1ncnc2nc[nH]c12 [2FBAP, 6-(2-fluorobenzylamino)purine]
[1]
  IC50: 106 µM
[2]
  IC50: > 167 µM
[3]
  IC50: 98 µM
HOS (human osteosarcoma)
  IC50: > 167 µM
[5]
  IC50: 136 µM

## COc1ccc(CNc2ncnc3nc[nH]c23)cc1 [4MeOBAP, 6-(4-methoxybenzylamino)purine]
[1]
  IC50: ≥ 167 µM
[2]
  IC50: > 167 µM
[3]
  IC50: > 167 µM
NIH-3T3
  IC50: > 167 µM
[4]
  IC50: > 167 µM
HOS (human osteosarcoma)
  IC50: > 167 µM
[5]
  IC50: > 167 µM

## Fc1cccc(CNc2ncnc3nc[nH]c23)c1 [3FBAP, 6-(3-fluorobenzylamino)purine]
[1]
  IC50: > 167 µM
[2]
  IC50: 163 µM
[3]
  IC50: > 167 µM
[4]
  IC50: > 167 µM
HOS (human osteosarcoma)
  IC50: > 167 µM
[5]
  IC50: 105 µM

## Clc1cccc(CNc2ncnc3nc[nH]c23)c1 [3ClBAP, 6-(3-chlorobenzylamino)purine]
[1]
  IC50: 149 µM
[2]
  IC50: > 167 µM
[3]
  IC50: > 167 µM
[6]
  activity (%) [10^−5 mol · l^−1 BAP = 100%]: 94%
[4]
  IC50: > 167 µM
HOS (human osteosarcoma)
  IC50: > 167 µM
